From US12673022B2, “Drug delivery system using solution” (Kyoto University, priority 2018, dated 2026)

Test system: human DMD exon 45 knock-in/mouse Dmd exon 44 knock-out mouse tibialis anterior muscle
Experiment: Exon skipping efficiency in skeletal muscle (human DMD exon 45)
Assay type: in vivo
Conditions: Example 7; administration solution 3: 25 mM or 250 mM 6-phospho-D-gluconic acid or N-carbamyl-L-aspartic acid, 158 mM sodium chloride, hEx45 #1 and #23 gRNA/Cas9; 50 μL once, day 7; Dunnett's test; FIG. 11
Method: Cas9 protein (120 μg), hDMD Ex45 #1 gRNA (15 μg), hDMD Ex45 #23 gRNA (15 μg) and 10×PBS (25 μL) were mixed and a 500 mM compound stock solution was added, and then, 500 mM compound stock solution was added to the mixture so as to obtain final concentrations: […], […], 300 ng/μL hDMD Ex45 #23 gRNA, 158 mM sodium chloride, 25 mM or 250 mM compound and diluted with UltraPure DNase/RNase-Free Distilled Water up to a liquid volume of 250 μL and incubated at normal temperature for 15 minutes. The Cas9 protein herein was subjected to buffer replacement with 250 mM sodium chloride by use of Amicon® Ultra 2 mL Centrifugal Filters and then put in use […]
To the tibialis anterior muscle of each of 4 weeks-old male human DMD exon 45 knock-in/mouse Dmd exon 44 knock-out mice, administration solution 3 (50 μL) was administered once. […] Subsequently, a product with skipping was quantitatively measured by use of FastStart Universal Probe Master (Roche), the primers represented by SEQ ID Nos. 14 and 15 and the probe of sequence 16. The product without skipping was quantitatively measured by use of FastStart Universal Probe Master (Roche), the primers represented by SEQ ID Nos. 17 and 18 and the probe of sequence 19. Each of the PCR products was measured by use of ViiA7™ real time PCR system. […]

Structure (SMILES): NC(=O)N[C@@H](CC(=O)O)C(=O)O [N-Carbamyl-L-aspartic acid]
- Exon skipping activity (skipping efficiency %) compared to 250 mM GABA: statistically significant results compared to 250 mM GABA
